Consider ten compounds from patent US8188085B2, “Antifungal agents” (Merck Sharp & Dohme Corp., priority 2008, dated 2012).

glucan synthase (GS) prepared from Candida albicans MY1055, sequence (O13428 1-1897): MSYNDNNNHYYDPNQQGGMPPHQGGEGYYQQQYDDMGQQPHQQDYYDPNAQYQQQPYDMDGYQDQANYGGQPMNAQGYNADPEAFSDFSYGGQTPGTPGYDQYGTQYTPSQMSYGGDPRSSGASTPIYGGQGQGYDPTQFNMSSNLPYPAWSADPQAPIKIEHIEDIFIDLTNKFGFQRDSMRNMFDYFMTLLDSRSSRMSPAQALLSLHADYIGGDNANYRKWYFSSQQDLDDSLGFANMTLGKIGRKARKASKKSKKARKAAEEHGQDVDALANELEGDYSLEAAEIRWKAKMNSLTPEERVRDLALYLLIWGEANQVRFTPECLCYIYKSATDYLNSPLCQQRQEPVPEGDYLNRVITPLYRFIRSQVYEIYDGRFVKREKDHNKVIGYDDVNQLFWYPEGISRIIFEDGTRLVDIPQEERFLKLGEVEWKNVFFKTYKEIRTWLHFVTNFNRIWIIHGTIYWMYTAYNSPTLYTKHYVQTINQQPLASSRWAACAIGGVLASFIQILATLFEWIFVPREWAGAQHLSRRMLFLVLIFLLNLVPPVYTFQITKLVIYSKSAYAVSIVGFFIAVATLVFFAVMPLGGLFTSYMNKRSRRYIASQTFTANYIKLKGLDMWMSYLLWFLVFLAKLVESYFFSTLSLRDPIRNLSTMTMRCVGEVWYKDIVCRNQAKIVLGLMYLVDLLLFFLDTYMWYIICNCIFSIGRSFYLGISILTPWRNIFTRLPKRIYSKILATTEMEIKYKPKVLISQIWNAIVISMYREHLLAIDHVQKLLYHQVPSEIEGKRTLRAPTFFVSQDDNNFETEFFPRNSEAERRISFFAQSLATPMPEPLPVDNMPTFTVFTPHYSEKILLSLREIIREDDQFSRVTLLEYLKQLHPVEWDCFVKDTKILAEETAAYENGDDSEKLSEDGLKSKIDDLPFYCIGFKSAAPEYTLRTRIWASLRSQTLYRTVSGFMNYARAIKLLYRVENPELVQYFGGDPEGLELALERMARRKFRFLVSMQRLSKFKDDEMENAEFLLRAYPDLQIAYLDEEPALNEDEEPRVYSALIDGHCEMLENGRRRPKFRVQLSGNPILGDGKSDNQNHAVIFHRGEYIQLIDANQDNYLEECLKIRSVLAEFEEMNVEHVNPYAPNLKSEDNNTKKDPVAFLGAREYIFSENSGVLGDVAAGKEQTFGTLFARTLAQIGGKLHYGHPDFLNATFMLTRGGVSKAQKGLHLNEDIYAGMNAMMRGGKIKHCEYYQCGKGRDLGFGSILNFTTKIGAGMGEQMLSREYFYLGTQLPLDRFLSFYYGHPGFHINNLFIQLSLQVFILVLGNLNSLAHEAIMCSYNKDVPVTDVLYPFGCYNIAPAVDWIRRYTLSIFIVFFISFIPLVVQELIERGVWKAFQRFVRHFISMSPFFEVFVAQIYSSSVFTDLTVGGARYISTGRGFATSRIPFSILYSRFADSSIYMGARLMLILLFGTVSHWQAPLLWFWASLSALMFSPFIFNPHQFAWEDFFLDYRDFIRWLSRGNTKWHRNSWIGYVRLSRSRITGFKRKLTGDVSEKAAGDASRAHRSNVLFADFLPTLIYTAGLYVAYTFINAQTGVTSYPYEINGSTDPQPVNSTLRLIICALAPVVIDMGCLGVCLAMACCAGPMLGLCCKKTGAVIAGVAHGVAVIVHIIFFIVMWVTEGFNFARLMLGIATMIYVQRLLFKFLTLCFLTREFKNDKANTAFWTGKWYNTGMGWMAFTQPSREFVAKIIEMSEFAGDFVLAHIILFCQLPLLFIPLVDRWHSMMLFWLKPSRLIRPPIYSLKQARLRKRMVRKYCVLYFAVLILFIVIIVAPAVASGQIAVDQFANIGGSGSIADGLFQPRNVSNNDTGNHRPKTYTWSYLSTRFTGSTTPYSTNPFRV

For the experiment, the target named is glucan synthase (GS) prepared from Candida albicans MY1055 (Candida albicans, UniProt O13428). The experiment in a line: Glucan synthase inhibition (polymerization assay, 96-well). Format: biochemical. To be noted: GS from C. albicans MY1055; 60 min incubation at 22° C.; read-out: Candida Albicans GS IC50 (converted). Here is the method:
The in vitro evaluation of glucan synthase inhibitory activity of compounds was measured in a polymerization assay in 96-well format. Each well contained 100 μL of ^3H-UDPG at 0.5 mM (6000 to 8000 dpm/nmol), 50 mM HEPES pH 7.5 (Sigma), 10% w/v glycerol (Sigma), 1.5 mg/mL bovine serum albumin (Sigma A 9647. Lot 44H0190), 25 mM KF (Fisher), 1 mM EDTA (Gibco ULTRAPURE), 25 μM GTP-γ-S, enzyme sufficient to give 3 to 6 nmoles incorporation during the 60 min incubation at 22° C., and test compound added from wells in 3-fold serial dilutions in 100% DMSO (1 μL/well). The reaction was stopped by the addition of 100 μL of 20% trichloroacetic acid. Plates were chilled for a minimum of 10 min, and precipitated glucan collected by filtration on GF/C plates (Packard UNIFILTER®-96), washed with 5 cycles of water (about 1 mL/well each cycle) using a Packard FILTERMATE HARVESTER. 40 μL/well scintillation fluid (Packard ULTIMA GOLD TM-XR) was added and the sealed plates counted in a WALLAC BETA counter in top-counting mode at an efficiency of approximately 40%.
Stock solutions were stored at 10 mg/mL in DMSO at −20° C. For each new enzyme preparation, the initial titration performed started at 1 mg/mL, which was prepared by making a 10-fold dilution in DMSO (5 μL to 50 μL). 40 μL of this stock was placed in column 12 of a round-bottomed 96-well microtiter plate. 40 μL DMSO was added to columns 1 to 11 in the same row and ten 3-fold serial dilutions performed, by transferring 20 μL from column 12 to column 11 etc., with 4 mixings before each transfer. No test compound was transferred to from column 2 to column 1. Duplicate aliquots of 1 μL of all 12 dilutions were then transferred to the side walls of a 96-well Bioblock 1.1 mL plate (Fisher brand) to create two rows.
Graphs of the primary data were created in PRISM software (the average of two determinations) using PRISM's curve fitting program (sigmoidal dose response non-linear regression). The amount of compound required to inhibit glucan synthase activity by 50% in this assay (IC50−ng/mL) was calculated.
Routine analysis was performed with glucan synthase (GS) prepared from Candida albicans MY1055 by the following procedure: MY1055 was grown in 10 liters YPD medium (10 g yeast extract, 20 g tryptone, 20 g glucose per liter) with vigorous shaking at 30° C., to early stationary phase. Cells were harvested by centrifugation, the pellet was washed and frozen at −70° C. until breakage. Thawed pellets were shaken with an equal volume of breakage buffer (50 mM HEPES pH 7.4, 10% glycerol, 1 mM EDTA, 1 mM PMSF, 1 mM DTT) and 4 times their weight of 0.5 mm acid washed glass beads for 2 hours at 4° C. Extent of breakage was assessed visually at 40× magnification. After low speed centrifugation to remove cell debris, the supernatant was centrifuged at 100,000×g for 60 min. to separate membranes plus ribosomes from cytoplasmic components. Membranes were further washed two additional times with breakage buffer using the same centrifugation conditions and finally suspended in breakage buffer at 25 to 30 mg/mL protein (Biorad) for storage at −70° C. Extraction of GS activity from membranes was performed at a protein concentration of 5 mg/mL in extraction buffer (50 mM NaPO4 pH 7.5, 0.1 M KCl, 0.1M Na citrate, 20% glycerol, 5 μM GTP-γ-S, 1 mM DTT, 1 mM PMSF, 3 μg/mL pepstatin) plus 0.25% W1 by gentle mixing at 4° C. for 60 min, followed by centrifugation at 100,000×g for 60 min. After centrifugation, clear supernatant was removed from a pellet consisting of a hard layer usually with small amounts of gelatinous unextracted membranes above it.
Trapping was initiated immediately by 5-fold dilution in trapping buffer (50 mM HEPES pH 7.5, 10 mM KF, 1 mM EDTA, 2 mg/mL BSA) plus 2.5 mM UDPG and 10 μM GTP-γ-S. After incubation at 25° C. for 60 to 90 minutes, glucan was harvested by low speed centrifugation (3,000×g, 10 min). […]
In the case of `CC(C)NC(=O)c1ncn([C@@H]2C[C@@]34COC[C@](C)([C@@H]3CC[C@H]3C4=CC[C@@]4(C)[C@H](C(=O)O)[C@@](C)([C@H](C)C(C)C)CC[C@]34C)[C@H]2OC[C@](C)(N)C(C)C)n1` (single isomer, unassigned) [Example 37B], the IC50 was 60.8 nM.
In the case of `CC(C)[C@@H](C)[C@@]1(C)CC[C@]2(C)[C@H]3CC[C@@H]4[C@@]5(COC[C@@]4(C)[C@@H](OC[C@H](N)C(C)(C)C)[C@H](n4cnc(N)n4)C5)C3=CC[C@@]2(C)[C@@H]1C(=O)O` [Example 24, (1S,4aR,6aS,7R,8R,10aR,10bR,12aR,14R,15R)-15-[[(2R)-2-amino-3,3-dimethylbutyl]oxy]-14-(3-amino-1H-1,2,4-triazol-1-yl)-8-[(1R)-1,2-dimethylpropyl]-1,6,6a,7,8,9,10,10a,10b,11,12,12a-dodecahydro-1,6a,8,10a-tetramethyl-4H-1,4a-propano-2H-phenanthro[1,2-c]pyran-7-carboxylic acid] it was 16.8 nM; in that of `CN[C@@](C)(CO[C@H]1[C@H](n2ncnc2C(=O)NC2CC2)C[C@@]23COC[C@]1(C)[C@@H]2CC[C@H]1C3=CC[C@@]2(C)[C@H](C(=O)O)[C@@](C)([C@H](C)C(C)C)CC[C@]12C)C(C)C` [Example 64, (1S,4aR,6aS,7R,8R,10aR,10bR,12aR,14R,15R)-14-[5-[(cyclopropylamino)carbonyl]-1H-1,2,4-triazol-1-yl]-15-[[(2R)-2,3-dimethyl-2-(methylamino)butyl]oxy]-8-[(1R)-1,2-dimethylpropyl]-1,6,6a,7,8,9,10,10a,10b,11,12,12a-dodecahydro-1,6a,8,10a-tetramethyl-4H-1,4a-propano-2H-phenanthro[1,2-c]pyran-7-carboxylic acid], 13.6 nM; in that of `CC(C)[C@@H](C)[C@@]1(C)CC[C@]2(C)[C@H]3CC[C@@H]4[C@@]5(COC[C@@]4(C)[C@@H](OCC(C)(C(C)C)N(C)C)[C@H](n4cnc(Cl)n4)C5)C3=CC(=O)[C@@]2(C)[C@@H]1C(=O)O` (stereo partly drawn) [Example 9C, (1S,4aR,6aS,7R,8R,10aR,10bR,12aR,14R,15R)-14-(3-chloro-1H-1,2,4-triazol-1-yl)-15-[2-(dimethylamino)-2,3-dimethylbutoxy]-8-[(1R)-1,2-dimethylpropyl]-1,6,6a,7,8,9,10,10a,10b,11,12,12a-dodecahydro-1,6a,8,10a-tetramethyl-6-oxo-4H-1,4a-propano-2H-phenanthro[1,2-c]pyran-7-carboxylic acid], 74.1 nM.
Turning to `CN[C@@](C)(CO[C@H]1[C@H](n2ncnc2C(=O)NCCF)C[C@@]23COC[C@]1(C)[C@@H]2CC[C@H]1C3=CC[C@@]2(C)[C@H](C(=O)O)[C@@](C)([C@H](C)C(C)C)CC[C@]12C)C(C)C` [Example 77, (1S,4aR,6aS,7R,8R,10aR,10bR,12aR,14R,15R)-15-[[(2R)-2,3-dimethyl-2-(methylamino)butyl]oxy]-8-[(1R)-1,2-dimethylpropyl]-14-[5-[[(2-fluoroethyl)amino]carbonyl]-1H-1,2,4-triazol-1-yl]-1,6,6a,7,8,9,10,10a,10b,11,12,12a-dodecahydro-1,6a,8,10a-tetramethyl-4H-1,4a-propano-2H-phenanthro[1,2-c]pyran-7-carboxylic acid], the IC50 is 8.09 nM.
`CNC1(CO[C@H]2[C@H](n3cncn3)C[C@@]34COC[C@]2(C)[C@@H]3CC[C@H]2C4=CC[C@@]3(C)[C@H](C(=O)O)[C@@](C)([C@H](C)C(C)C)CC[C@]23C)CCCCC1` [Example 16, (1S,4aR,6aS,7R,8R,10aR,10bR,12aR,14R,15R)-8-[(1R)-1,2-dimethylpropyl]-15-[[1-(methylamino)cyclohexyl]methoxy]-14-(1H-1,2,4-triazol-1-yl)-1,6,6a,7,8,9,10,10a,10b,11,12,12a-dodecahydro-1,6a,8,10a-tetramethyl-4H-1,4a-propano-2H-phenanthro[1,2-c]pyran-7-carboxylic acid]: the IC50 was 33.1 nM.
The value for `CC(C)[C@@H](C)[C@@]1(C)CC[C@]2(C)[C@H]3CC[C@@H]4[C@@]5(COC[C@@]4(C)[C@@H](OC[C@](C)(N)C(C)C)[C@H](n4cccn4)C5)C3=CC[C@@]2(C)[C@@H]1C(=O)O` [Example 291, (1S,4aR,6aS,7R,8R,10aR,10bR,12aR,14R,15R)-15-[[(2R)-2-amino-2,3-dimethylbutyl]oxy]-8-[(1R)-1,2-dimethylpropyl]-14-(1H-pyrazol-1-yl)-1,6,6a,7,8,9,10,10a,10b,11,12,12a-dodecahydro-1,6a,8,10a-tetramethyl-4H-1,4a-propano-2H-phenanthro[1,2-c]pyran-7-carboxylic acid] was 54.9 nM; that for `CN[C@@](C)(CO[C@H]1[C@H](n2ncnc2-c2ccccc2)C[C@@]23COC[C@]1(C)[C@@H]2CC[C@H]1C3=CC[C@@]2(C)[C@H](C(=O)O)[C@@](C)([C@H](C)C(C)C)CC[C@]12C)C(C)C` [Example 150, (1S,4aR,6aS,7R,8R,10aR,10bR,12aR,14R,15R)-15-[[(2R)-2,3-dimethyl-2-(methylamino)butyl]oxy]-8-[(1R)-1,2-dimethylpropyl]-14-(5-phenyl-1H-1,2,4-triazol-1-yl)-1,6,6a,7,8,9,10,10a,10b,11,12,12a-dodecahydro-1,6a,8,10a-tetramethyl-4H-1,4a-propano-2H-phenanthro[1,2-c]pyran-7-carboxylic acid] was 2.74 nM; that for `CNC(=O)c1ncnn1[C@@H]1C[C@@]23COC[C@](C)([C@@H]2CC[C@H]2C3=CC[C@@]3(C)[C@H](C(=O)O)[C@@](C)([C@H](C)C(C)C)CC[C@]23C)[C@H]1OCC1(NC)CCSCC1` [Example 116, (1S,4aR,6aS,7R,8R,10aR,10bR,12aR,14R,15R)-8-[(1R)-1,2-dimethylpropyl]-14-[5-[(methylamino)carbonyl]-1H-1,2,4-triazol-1-yl]-15-[[tetrahydro-4-(methylamino)-2H-thiopyran-4-yl]methoxy]-1,6,6a,7,8,9,10,10a,10b,11,12,12a-dodecahydro-1,6a,8,10a-tetramethyl-4H-1,4a-propano-2H-phenanthro[1,2-c]pyran-7-carboxylic acid] was 20.3 nM.
The value for `CC(C)[C@@H](C)[C@@]1(C)CC[C@]2(C)[C@H]3CC[C@@H]4[C@@]5(COC[C@@]4(C)[C@@H](OC[C@@](C)(C(C)C)N(C)C)[C@H](n4cncn4)C5)C3=CC[C@@]2(C)[C@@H]1C(=O)O` [Example 18, (1S,4aR,6aS,7R,8R,10aR,10bR,12aR,14R,15R)-15-[[(2R)-2-(dimethylamino)-2,3-dimethylbutyl]oxy]-8-[(1R)-1,2-dimethylpropyl]-14-(1H-1,2,4-triazol-1-yl)-1,6,6a,7,8,9,10,10a,10b,11,12,12a-dodecahydro-1,6a,8,10a-tetramethyl-4H-1,4a-propano-2H-phenanthro[1,2-c]pyran-7-carboxylic acid] was 12 nM.

Usually IC50 stands for the concentration that inhibits the measured activity by half.
